In US7476650B2, “Enzyme inhibition” (Yale University, priority 1999, dated 2009):
One block for each molecule: values may come before it. Where a SMILES comes first, the peptide text is derived from it. The star is where a group is joined. X1 = CC(C)C[C@H](N*)C(=O)[C@@]1(C)CO1

Experiments:
[1] = target: T1, chymotrypsin-like activity of purified bovine erythrocyte 20S proteasome (Bos taurus, UniProt Q32KL2); experiment: Enzyme kinetic assay, chymotrypsin-like activity (Suc-LLVY-AMC); format: biochemical; details: for kinact/KI: pH 8, Table 1, inhibitor concentration range in parentheses, read-out: kobs/[I] Chymotrypsin-like activity; for kobs/[I] for chymotryptic-like activity using Suc-LLVY-AMC: Examples 9 and 10, in M-1s-1; for kassoc = kobs/[I] (chymotrypsin-like activity inhibition): Table 5; for kobs/[I] Chymotrypsin-like: Table 3
T1 construct: from tissue; host or cells: bovine erythrocytes (red blood cells)
From the text: (§1) We investigated the potency of inhibitors of various length. Mono-, di-,tri- and tetraleucine α′,β′-epoxides were ranked by determination of the kobs/[I] values for inhibition of the chymotrypsin-like, trypsin-like, and PGPH activities of purified bovine erythrocyte 20S proteasome.
(§2) Purified bovine erythrocyte proteasome was enzymatically assayed using a variety of different substrates and inhibitors. In order to evaluate the rates of proteolytic inactivation by inhibitors, kassociation (kobs/[I]) values were determined using fluorogenic peptide substrates over a range of inhibitor concentrations.

[2] = target: T2, PGPH activity of purified bovine erythrocyte 20S proteasome (Bos taurus, UniProt Q3MHN0); experiment: Enzyme kinetic assay, PGPH activity (Z-LLE-AMC); format: biochemical; details: for kinact/KI: pH 8, Table 1, inhibitor concentration range in parentheses, read-out: kobs/[I] PGPH activity; for kobs/[I] for PGPH activity using Z-LLE-AMC: Examples 9 and 10; for kobs/[I] PGPH: Table 3; for selectivity for the PGPH activity: in words, data not shown for Glu compounds
T2 construct: from tissue; host or cells: bovine erythrocytes (red blood cells)
Protocol: as §1, with “proteasome. Enzyme kinetic assays were performed as described in Example 2.” for “proteasome.”
as §2

[3] = target: T3, trypsin-like activity of purified bovine erythrocyte 20S proteasome (Bos taurus, UniProt Q2TBP0); experiment: Enzyme kinetic assay, trypsin-like activity (Boc-LRR-AMC); format: biochemical; details: for kobs/[I] for tryptic-like activity using Boc-LRR-AMC: Examples 9 and 10; for kobs/[I] Trypsin-like: Table 3
T3 construct: from tissue; host or cells: bovine erythrocytes (red blood cells)
From the text: as §1, §2

[4] = test system: bovine aortic endothelial (BAE) cells; experiment: BAE cell proliferation ([methyl-3H]-thymidine incorporation); format: cell-based
Protocol: BAE cells were cultured at 7% CO2 and were grown in DMEM supplemented with 10% FBS, 1% penicillin/streptomycin (GIBCO), and 1 mM sodium pyruvate.
Approximately 1000 BAE cells were plated into each well of a 96-well culture plate. After an overnight incubation, different concentrations of proteasome inhibitors were added and incubation was continued for another five days. […] Subsequently, 74 kBq of [methyl-^3H]-thymidine was added to each well of the plate and the plate was incubated for another additional 4 hours. Cells were harvested using a Skatron Cell Harvester and incorporated radioactivity was quantified using liquid scintillation. Proliferation of BAE cells was assayed in triplicate in the presence of different concentrations of peptide epoxides.
Perturbation of the proteasome activity can result in inhibition of cell growth, and can further lead to cell death at elevated concentration of the proteasome inhibitors. This provides an excellent cell-based assay to assess the importance of each catalytic activity of the 20S proteasome in degradation of proteins involved in cell growth. We measured inhibition of proliferation of bovine aortic endothelial (BAE) cells with our α′,β′-epoxyketone-based inhibitors with varying degree of specificity for the PGPH activity.

Compound: CC(=O)N[C@@H](CC(C)C)C(=O)N[C@@H](CC(C)C)C(=O)N[C@@H](CC(C)C)C(=O)N[C@@H](CC(C)C)C(=O)[C@@]1(C)CO1
- kinact/KI [1]: 14000 M⁻¹ s⁻¹
- kinact/KI [2]: 9.2 M⁻¹ s⁻¹
- kobs/[I] for tryptic-like activity using Boc-LRR-AMC [3]: not measurable

Compound: CC(=O)N[C@@H](C)C(=O)N[C@H](C(=O)N[C@@H](CCC(=O)O)C(=O)[C@@]1(C)CO1)C(C)C [Ac-Ala-Val-Glu-α′,β′-epoxyketone]
- selectivity for the PGPH activity [2]: did not display any significant selectivity

Compound: CC(=O)NCC(=O)NCC(=O)N1CCC[C@H]1C(=O)N[C@@H](Cc1ccccc1)C(=O)N[C@@H](CC(C)C)C(=O)[C@@]1(C)CO1 [Ac-GGPFL-Ex] (Ac-GGPF-X1)
- kobs/[I] Chymotrypsin-like [1]: 170 ± 60 M⁻¹ s⁻¹
- kobs/[I] PGPH [2]: 170 ± 30 M⁻¹ s⁻¹
- kobs/[I] Trypsin-like [3]: 1.3 ± 0.3 M⁻¹ s⁻¹

Compound: CC(=O)NCC(=O)N1CCC[C@H]1C(=O)N[C@@H](Cc1ccccc1)C(=O)N[C@@H](CC(C)C)C(=O)C1(C)CO1 (stereo partly drawn) [Ac-GPFL-Ex]
- IC50 ([4]; Table 6, PGPH-directed inhibitors): 58000 nM
- kobs/[I] Chymotrypsin-like [1]: 5 ± 1 M⁻¹ s⁻¹
- selectivity: fold higher kobs/[I] for inhibition of the PGPH activity than the chymotrypsin-like activity ([2]; PGPH vs chymotrypsin-like): 35 fold
- kobs/[I] PGPH [2]: 190 ± 10 M⁻¹ s⁻¹
- inhibition of the trypsin-like activity of the proteasome ([3]; in words): no inhibition

Compound: CC(=O)NCC(=O)N1CCC[C@H]1C(=O)N[C@@H](Cc1ccccc1)C(=O)N[C@@H](CCC(=O)O)C(=O)[C@@]1(C)CO1 [Ac-Gly-Pro-Phe-Glu-α′,β′-epoxyketone]
- selectivity for the PGPH activity [2]: did not display any significant selectivity

Compound: CC[C@H](C)[C@H](NC(C)=O)C(=O)N[C@H](C(=O)N[C@H](C(=O)N[C@@H](CCC(=O)O)C(=O)[C@@]1(C)CO1)[C@@H](C)O)[C@@H](C)CC [Ac-Ile-Ile-Thr-Glu-α′,β′-epoxyketone]
- selectivity for the PGPH activity [2]: did not display any significant selectivity

Compound: CC[C@H](C)[C@H](NC(C)=O)C(=O)N[C@H](C(=O)N[C@@H](CCC(=O)O)C(=O)[C@@]1(C)CO1)C(C)C [Ac-Ile-Val-Glu-α′,β′-epoxyketone]
- selectivity for the PGPH activity [2]: did not display any significant selectivity

Compound: CC(=O)N1CCC[C@H]1C(=O)N[C@@H](Cc1ccccc1)C(=O)N[C@@H](CC(C)C)C(=O)[C@@]1(C)CO1 [Ac-PFL-Ex]
- kobs/[I] Chymotrypsin-like [1]: 42 ± 2 M⁻¹ s⁻¹
- kobs/[I] PGPH [2]: 32 ± 6 M⁻¹ s⁻¹

Compound: CC(=O)N1CCC[C@H]1C(=O)N1CCC[C@H]1C(=O)N[C@@H](Cc1ccccc1)C(=O)N[C@@H](CC(C)C)C(=O)[C@@]1(C)CO1 [Ac-PPFL-Ex]
- kobs/[I] Chymotrypsin-like [1]: 6.4 ± 3.3 M⁻¹ s⁻¹
- kobs/[I] PGPH [2]: 10.6 ± 0.3 M⁻¹ s⁻¹

The next lines start with results.

- kinact/KI [1]: 780 M⁻¹ s⁻¹
- kinact/KI [2]: 120 M⁻¹ s⁻¹
- kinact/KI ([3]; pH 8, Table 1, inhibitor concentration range in parentheses, read-out: kobs/[I] trypsin-like activity): 5.1 M⁻¹ s⁻¹
Compound: CC(=O)N[C@@H](CC(C)C)C(=O)N[C@@H](CC(C)C)C(=O)N[C@@H](CC(C)C)C(=O)[C@@]1(C)CO1

- kinact/KI [1]: 3.1 M⁻¹ s⁻¹
Compound: CC(=O)N[C@@H](CC(C)C)C(=O)N[C@@H](CC(C)C)C(=O)[C@@]1(C)CO1

- kobs/[I] for chymotryptic-like activity using Suc-LLVY-AMC [1]: 5,300
- kassoc = kobs/[I] (chymotrypsin-like activity inhibition) [1]: 5300 M⁻¹ s⁻¹
- kobs/[I] for PGPH activity using Z-LLE-AMC [2]: 220
- kobs/[I] for tryptic-like activity using Boc-LRR-AMC [3]: 3.8 M⁻¹ s⁻¹
Compound: CC(=O)N[C@@H](C)C(=O)N[C@@H](CC(C)C)C(=O)N[C@@H](CC(C)C)C(=O)N[C@@H](CC(C)C)C(=O)[C@@]1(C)CO1 [Ac-ALLL-epoxide]
- IC50 ([4]; Table 5, five days incubation): 83 nM

- kobs/[I] Chymotrypsin-like [1]: 10.8 ± 0.2 M⁻¹ s⁻¹
- kobs/[I] PGPH [2]: 12.7 ± 1.3 M⁻¹ s⁻¹
- kobs/[I] Trypsin-like [3]: 1.8 ± 0.1 M⁻¹ s⁻¹
Compound: CC(=O)N[C@@H](C)C(=O)N[C@H](C(=O)N[C@@H](CC(C)C)C(=O)[C@@]1(C)CO1)C(C)C [Ac-AVL-Ex]

- kobs/[I] Chymotrypsin-like [1]: 5 ± 0.1 M⁻¹ s⁻¹
- kobs/[I] PGPH [2]: 14.6 ± 4.2 M⁻¹ s⁻¹
- kobs/[I] Trypsin-like [3]: 6.7 ± 0.1 M⁻¹ s⁻¹
Compound: CC[C@H](C)[C@H](NC(C)=O)C(=O)N[C@H](C(=O)N[C@@H](CC(C)C)C(=O)[C@@]1(C)CO1)C(C)C [Ac-IVL-Ex]

- kobs/[I] for chymotryptic-like activity using Suc-LLVY-AMC [1]: 1,300
- kassoc = kobs/[I] (chymotrypsin-like activity inhibition) [1]: 1300 M⁻¹ s⁻¹
- kobs/[I] for PGPH activity using Z-LLE-AMC [2]: 130
- kobs/[I] for tryptic-like activity using Boc-LRR-AMC [3]: 2 M⁻¹ s⁻¹
Compound: CC(=O)N[C@@H](CC(C)C)C(=O)N[C@@H](C)C(=O)N[C@@H](CC(C)C)C(=O)N[C@@H](CC(C)C)C(=O)[C@@]1(C)CO1 [Ac-LALL-epoxide]
- IC50 ([4]; Table 5, five days incubation): 700 nM
